Experimental data from patent US5534492A, “Muramyl peptide for the treatment of toxicity” (Peptech (UK) Limited, priority 1992, dated 1996).
One block for each compound: values may come before it.

Columns and labels:
C57BL/6 mice = assay: Duration of hexenal narcosis in C57BL/6 mice; format: in vivo
From the text: Cytochrome P450 -dependent monooxygenase activity induction in accordance with pharmacological testing of HEXENAL™ narcosis duration in mice.
In addition to the experiments, which have shown GMDP ability to interact directly with cytochrome P450 molecule as a substrate (in vitro) and to induce cytochrome P450 system in liver microsomes (GMDP effect in vivo), experiments for testing cytochrome P450 system according to the duration of HEXENAL™ narcosis in mice have been carried out. It is well known that HEXENAL™ is a substrate of cytochrome P450, and the duration of its narcotic effect clearly correlates with the rate of its oxidation in the liver cytochrome P450 system. The method of Example 6 was repeated, but instead of aniline and benzo(a)pyrene, the ability of the microsomes to metabolise HEXENAL™ was tested. The experiments performed have shown that GMDP in small doses is capable of inducing cytochrome P450 -dependent oxidation of HEXENAL™ (Tables 3 and 4).

[1] = system: mice liver cytochrome P-450 system; assay: Indices of activity of mice liver cytochrome P-450 system after GMDP injections; format: in vivo
Description: The experiments were performed on white male mice with a mass of […]. GMDP was dissolved in isotonic solution of sodium chloride and administered by means of intraperitoneal injection once a day for 3 days, with a dose of 20 mg/kg. A corresponding volume of the solvent was administered to control animals. Each group (test and control) consisted of 8 to 10 mice. Twenty-four hours after the last injection of the substances under test (test) and the solvent (control), the animals were killed, the liver was removed and its weight was determined. This was followed by the isolation of the microsomal fraction by means of differential centrifugation. The quality protein in it was determined according to the method of Lowry et al (Lowry et al, J. Biol. Chem., 193, 265-275 (1951)). Bovine serum albumin was used in the construction of calibrating plot. The content of cytochrome P450 and B5 in the liver microsomal fraction was determined by spectrophotometric method with the help of a `Hitachi-556` spectrophotometer. The rate of oxidation of aniline (p-hydroxylation) in microsomes in the presence of NADPH was determined spectrophotometrically on the basis of p-aminophenol which has formed already. The rate of oxidation of benzo(a)pyrene (BP) in liver microsomes was determined according to the intensity of fluorescence of the forming 3-oxibenzo (a) pyrene `Baird Nova` fluorimeter. The rate of hydroxylation of aniline and BP in microsomes was expressed in nmol of metabolites/nmol of cytochrome P450 per 1 minute, or in nmol of metabolites/mg of microsome protein per 1 minute. Statistical processing of the obtained data was performed with the use of Student's t-test.

[2] = Placebo-controlled trial in colorectal surgery patients, blood bilirubin; format: in vivo, human; settings: GMDP 1, 2 or 3 mg per day for 10 days
From the text: Over 200 patients were enrolled in a placebo-controlled trial to determine the effect of GMDP on the outcome of colorectal surgery. Many of these patients had undergone previous chemotherapy for the treatment of cancers, often over substantial periods of time, with the result that liver damage had occurred.
This was evidenced by such indicators as elevated bilirubin in their blood, resulting from the reduced ability of the liver to function as a detoxification organ. […] GMDP or placebo were administered for 10 days, and bilirubin levels in the blood were measured before and after the course of treatment. Bilirubin data were obtained from 182 of the subjects. It is clear that the average blood level of bilirubin decreased in the GMDP-treated group and the two asterisks indicate that this decrease was statistically highly significant (p=0.002). […] Blood levels of bilirubin before the trial were not different in the two groups.

mice [3] = assay: Acute toxicity, LD50 test in mice; format: in vivo
From the text: This compound (Compound II in U.S. Pat. No. 4,395,399), also known as glycopin, has already undergone preclinical toxicity testing and pharmacokinetic investigations required for licensing for clinical use in the USSR. The acute toxicity in mice, measured by the LD50 test is 7 g/kg.

outbred mice = assay: Duration of acetaldehyde narcosis in outbred mice; format: in vivo; settings: GMDP IP, three daily injections; acetaldehyde 450 mg/kg IP
Description: (§1) Outbred white mice were given three intraperitoneal injections of GMDP at daily intervals and challenged with ethanol (4.5 g/kg IP) after the last GMDP injection. Narcosis was defined as the time in the lateral position ("leglessness"). […] Each group contained 10 to 12 mice.
The procedure of Example 1 was followed but modified to study the duration of acetaldehyde narcosis. Acetaldehyde, at 450 mg/kg was administered IP after the last GMDP dose, instead of the ethanol.

outbred white mice = assay: Duration of ethanol narcosis in outbred white mice; format: in vivo; settings: GMDP at least 0.01 mg/kg IP, three daily injections; ethanol 4.5 g/kg IP; vs control
From the text: as §1
In this example, the influence of GMDPA and various GMDP or GMDPA analogues on ethanol narcosis was studied. The procedure of Example 1 was followed, except that instead of the GMDP, one of the following compounds was administered IP at 1 mg/kg daily for three days: […]

Water solubility = format: physicochemical
From the text: GMDP also has the particular advantage, shared with the other glucosaminyl-muramyl peptides of U.S. Pat. No. 4,395,399, of being water soluble: this is a real benefit for parenteral administration. The choice of this muramyl dipeptide which in many ways is contrary to the trend in the art. Both muroctasin and MTP-PE have been specifically synthesised to incorporate a lipophilic group, and many non-lipophile-substituted muramyl dipeptides have been formulated in lipophilic preparations such as liposomes (as in U.S. Pat. No. 4,522,811 and U.S. Pat. No. 4,684,625), purportedly to enhance the activity of the muramyl dipeptide. In the present invention, water solubility is preferred.

Pyrogenicity = assay: Pyrogenicity
From the text: Pyrogenicity is a problem which has caused difficulties for the exploitation of certain muramyl dipeptides. Pyrogenicity may be attenuated by appropriate formulations (see, for example, the liposomal formulations of U.S. Pat. Nos. 4,522,811 and 4,684,625), but in general it will be preferable to choose, for use in the present invention, a muramyl dipeptide which has low intrinsic pyrogenicity. […] Such an analogue is available, and is N-acetyl-glucosaminyl-N-acetyl-muramyl-L-alanyl-D-glutamic acid (GMDP-A), which is Compound III in U.S. Pat. No. 4,395,399, and whose structure is as follows: [drawing 5]

[4] = system: cells of the reticulo-endothelial system; settings: cited from earlier work
[5] = system: liver microsomal cytochrome P450; assay: Optical difference spectrum with liver microsomal cytochrome P450; format: binding; settings: oxidised microsomes from phenobarbital-induced rat liver
From the text: The cytochrome P450 system is a system by means of which toxins are metabolised in the liver. A wide variety of substances combine with oxidised liver microsomal cytochrome P450 bringing about a change in absorbency. It has been shown that various drugs, substrates and inhibitors react with microsomal cytochrome P450 to give three characteristic types of spectral change.
The three types of spectral changes are as follows.
i) For substances such as ethylmorphine or hexobarbital, the minimum difference in the spectrum occurs at about 420 nm and the maximum at about 385-390 nm. These substances are designated type I compounds).
ii) For compounds such as aniline or nicotinamide, the minimum difference in the spectrum occurs at about 390-410 nm and the maximum at about 430 nm. These substances are designated type II compounds.
iii) Some compounds are apparently type II substrates but actually act by displacing endogenous type I substrates when added to microsomes. These compounds are designated reverse type I substrates.
It has been shown that, for a number of substrates, the apparent binding constants calculated from spectral changes are related to the actual binding of type I substrates at the active site.
Ks (spectral association constant) was 0.1 mM. This is Ks for the well known cytochrome P450 HEXENAL™.

mice [6] = assay: Duration of HEXENAL (hexobarbital) narcosis in mice, oral GMDP; format: in vivo; settings: for Effect % (M ± m): vs control
Description: This example studies the effect of GMDP on the duration of narcosis induced by hexobarbital.
GMDP was administered orally to mice 15 minutes before the intraperitoneal injection of hexobarbital (HEXENAL™) at 50 mg/kg. The duration of narcosis (preservation of the lateral position) was recorded.

inbred C57 B1/6 mice = assay: Acetaldehyde narcosis in inbred C57 B1/6 mice; format: in vivo; settings: GMDPA IP daily for three days
Description: as §1
This example studies the influence of GMDPA on acetaldehyde narcosis in inbred C57 B1/6 mice. The procedure of Example 1 was generally followed except that GMDPA was injected IP daily for three days and acetaldehyde was given 1, 4, 8 or 12 days later.

[7] = GMDP 0.01 mg/kg × 3 days i.p, hexenal 50 mg/kg 24 hours after GMDP injections
[8] = GMDP i.p injection simultaneously with hexenal injection, 50 mg/kg
[9] = GMDP i.p. injection 10 min after hexenal injection, 50 mg/kg
[10] = GMDP i.p. injection 30 min before hexenal injection, 50 mg/kg
[11] = GMDP i.p. injection 60 min before hexenal injection, 50 mg/kg
[12] = GMDP per os 15 min before i.p injection of hexenal 50 mg/kg
[13] = 24 hours after GMDP 20 mg/kg × 3 days i.p.
[14] = GMDP relative to control, 20 mg/kg × 3 days
[15] = liver microsomes, 24 hours after GMDP 20 mg/kg × 3 days i.p.
[16] = GMDP 0.01 mg/kg orally 15 min before hexobarbital 50 mg/kg i.p.
[17] = GMDP 0.1 mg/kg orally 15 min before hexobarbital 50 mg/kg i.p.
[18] = GMDP 1.0 mg/kg orally 15 min before hexobarbital 50 mg/kg i.p.

Compound: CC(=O)N[C@H]1[C@H](O[C@H]2[C@H](O[C@H](C)C(=O)N[C@@H](C)C(=O)N[C@H](CCC(=O)O)C(N)=O)[C@@H](NC(C)=O)C(O)O[C@@H]2CO)O[C@H](CO)[C@@H](O)[C@@H]1O (stereo partly drawn) [GMDP, N-acetyl-glucosaminyl-N-acetyl-muramyl-L-alanyl-D-isoglutamine]
Narcosis duration min. (M ± m) (C57BL/6 mice; [7]): 21.7 ± 5.2 min
Narcotic effect in % from control (C57BL/6 mice; [7]): 45%
Narcosis duration min. (M ± m) (C57BL/6 mice; [8]): 25.7 ± 4.9 min
Narcotic effect in % from control (C57BL/6 mice; [8]): 85%
Narcosis duration min. (M ± m) (C57BL/6 mice; [9]): 41.2 ± 3.3 min
Narcotic effect in % from control (C57BL/6 mice; [9]): 95%
Narcosis duration min. (M ± m) (C57BL/6 mice; [10]): 18.4 ± 1.5 min
Narcotic effect in % from control (C57BL/6 mice; [10]): 61%
Narcosis duration min. (M ± m) (C57BL/6 mice; [11]): 30.9 ± 5.7 min
Narcotic effect in % from control (C57BL/6 mice; [11]): 100%
Narcosis duration min. (M ± m) (C57BL/6 mice; [12]): 31.3 ± 4.9 min
Narcotic effect in % from control (C57BL/6 mice; [12]): 57%
Liver weight mg/g of the animal weight [1, 13]: 80.0 mg/g of the animal weight
Microsomal protein mg/g of liver weight [1, 13]: 5.8 ± 0.31 mg/g of liver weight
Aniline-hydroxylase (per mg of protein), % [1, 14]: 194%
Aniline-hydroxylase (per nmol of cyt. P-450), % [1, 14]: 178%
BP-hydroxylase (per mg of protein), % [1, 14]: 171%
BP-hydroxylase (per nmol of cyt P-450), % [1, 14]: 218%
Cytochrome P-450, % [1, 14]: 134%
Microsomal protein, % [1, 14]: 129%
Cytochrome P-450 nmol/mg of protein ([1]; liver microsomal fraction, 24 hours after GMDP 20 mg/kg × 3 days i.p.): 0.87 ± 0.06 nmol/mg of protein
Aniline-hydroxylase nmol/mg of protein per 1 minute [1, 15]: 1.20 ± 0.1 nmol/mg of protein per 1 minut
Aniline-hydroxylase nmol/nmol of cyt. P-450 per 1 minute [1, 15]: 1.05 ± 0.01 nmol/nmol of cyt. P-450 per 1
BP-hydroxylase nmol/mg of protein per 1 minute [1, 15]: 0.6 ± 0.04 nmol/mg of protein per 1 minut
BP-hydroxylase nmol/nmol of cyt P-450 per 1 minute [1, 15]: 0.87 ± 0.09 nmol/nmol of cyt P-450 per 1 m
blood level of bilirubin after treatment vs placebo [2]: significantly different from bilirubin levels after placebo treatment
average blood level of bilirubin, after vs before treatment ([2]; p=0.002): decreased
acute toxicity in mice, LD50 (mice [3]): 7000 mg/kg
duration of acetaldehyde narcosis (outbred mice): markedly shortened the duration of narcosis
duration of ethanol narcosis (outbred white mice): much shorter duration
water solubility (Water solubility): water soluble
pyrogenicity (Pyrogenicity): sufficiently low not to have prevented its clinical evaluation
synthesis of the superoxide anion (O2^-) [4]: stimulates the synthesis of the superoxide anion
Ks (spectral association constant) [5]: 0.1 mM
type of optical difference spectrum [5]: type I optical difference spectrum
Narcosis duration Min (M ± m) (mice [6]; [16]): 15.48 ± 4.93 min
Effect % (M ± m) (mice [6]; [16]): -74.01 ± 8.15%
Narcosis duration Min (M ± m) (mice [6]; [17]): 8.72 ± 2.98 min
Effect % (M ± m) (mice [6]; [17]): -85.59 ± 4.92%
Narcosis duration Min (M ± m) (mice [6]; [18]): 18.47 ± 4.82 min
Effect % (M ± m) (mice [6]; [18]): -69.47 ± 7.96%
shortening of the duration of hexobarbital-induced narcosis (mice [6]; average over all the doses investigated): ~4 fold

pyrogenicity (Pyrogenicity): substantially non-pyrogenic
Compound: N-acetyl-glucosaminyl-N-acetyl-muramyl-L-alanyl-D-glutamic acid [GMDPA]
inhibition of acetaldehyde narcosis (inbred C57 B1/6 mice; acetaldehyde given 1, 4 or 8 days later): inhibition of narcosis occurred
inhibition of acetaldehyde narcosis (inbred C57 B1/6 mice; acetaldehyde given 12 days later): not 12
